Assay results as given in the NIST ThermoML archive (doi:10.1021/je034153o).
Where “and” joins values, the source holds several entries; their conditions need not be identical. Identical values can stand only once. Numbers after ± are expanded uncertainties.

Settings: 303.15 K; Liquid; Closed cell (Static) method

Row | SMILES | vapor or sublimation pressure
1 | CCOCCO [2-ethoxyethan-1-ol] | 0.981 ± 0.017 kPa and 0.984 ± 0.017 kPa and 0.968 ± 0.017 kPa
2 | ClCCl [dichloromethane] | 70.49 ± 0.27 kPa
3 | ClC(Cl)(Cl)Cl [tetrachloromethane] | 18.83 ± 0.083 kPa
4 | ClC(Cl)Cl [trichloromethane] | 32.41 ± 0.13 kPa
